The text below walks through data of patent US12090204B2, “Photodynamic therapy compositions and methods of use thereof” (Pinnacle Biologics, Inc., priority 2020, dated 2024).

One data set deals with Y. intermedia (−). The data set is described as follows: porfimer sodium aPDT, planktonic culture. The class given is cell-based, Yersinia intermedia. As to conditions: 630 nm, 200 J/cm2, porfimer sodium 125 μg/mL. The method, then:
(§1) Bacteria were routinely cultured using tryptic soy broth or agar at 37° C. in a 5% CO2 incubator. Bacteria were isolated and suspended with 0.9% NaCl to an Optical Density (OD) of 0.1 taken at 630 nm, to generate the inoculum used for either planktonic or biofilm assays.
(§2) Experiments using planktonic cultures were carried out using M. catarrhalis, as a standard for further comparisons and to determine the effective drug concentration, porfimer sodium incubation time and light dose parameters which would provide an effective cell kill at the level of 5-7 logs. Once determined the experiments were repeated for all other bacterial strains examined.
(§3) The colony forming units (CFU) per mL of the starting inoculum for every experiment was determined by dilution plating. […]
(§4) Bacteria were exposed to 630 nm laser light via a fiber optic with a lens affixed to the distal end to provide a uniform diverging light field. […] Power output of the laser was measured using a UDT/Gamma Scientific 371 optical power meter and an integrating sphere. […]
(§5) Biofilms were formed on glass coupons in culture dishes containing a bacterial inoculum for 48 hours under conditions specific to the strain. […] Power output of the laser was measured using a UDT/Gamma Scientific 371 optical power meter and an integrating sphere. […]

For data set [1], the system named is Moraxella catarrhalis, Methicillin resistant Staphylococcus aureus (MRSA), Porphymonas gingivalis, Cutibacterium acnes, Peptostreptococcus anaerobius …. Put plainly: aPDT on 48 hour biofilms of various strains, CFU (FIG. 2). The format is cell-based. The method, then: Biofilms were formed on glass coupons in culture dishes containing a bacterial inoculum for 48 hours under conditions specific to the strain. The glass coupon attached biofilms were then rinsed with saline, by dipping method, prior to the administration of the porfimer sodium. The biofilms were incubated in the dark for 15-30 minutes with a reconstituted saline solution of porfimer sodium at final concentrations ranging from 75 μg/ml-250 μg/ml. The porfimer sodium treated biofilms were then exposed to light doses at 630 nm light of 50-200 J/cm^2 at a power density of 150 milliwatts per cm^2. The light was delivered using a fiberoptic with a lens attached at the distal end to provide a uniform light field over the area of the samples being treated. The accuracy of the wavelength delivered was routinely checked using an Optometrics USA Inc. 1 nm/div monochromator. Power output of the laser was measured using a UDT/Gamma Scientific 371 optical power meter and an integrating sphere. Control samples were 1) bacterial suspensions without any light or porfimer sodium (NLNP); and 2) porfimer sodium alone in bacterial suspension without any light (NLP) and 3) light alone (L). The light alone control was exposed to the highest light dose used in that particular experiment. Light doses are in joules/cm^2. Power density was 150 mW/cm^2 for each in vitro trial. […]

The next data set relates to S. aureus (+). Put plainly: porfimer sodium aPDT, 48 hour biofilm culture. The format is cell-based, Staphylococcus aureus. As to conditions: 630 nm, kill at 75 J/cm2 (light dose 75-100 J/cm2), porfimer sodium 250 μg/mL. The method, then: as §1
(§6) The colony forming units (CFU) per mL of the starting inoculum for every experiment was determined by dilution plating. Control samples were exposed to laser at 630 nm in the absence of porfimer sodium, porfimer sodium in the absence of laser exposure, or in saline alone in the absence of porfimer sodium and 630 nm laser light. All experimental samples were dilution plated to enumerate viable CFU's. Three independent replicates were performed for each reaction condition per strain per assay. […]
as §4, §5

For another data set, the system named is Prevotella (−). Put plainly: porfimer sodium aPDT, planktonic culture. The format is cell-based. As to conditions: 630 nm, kill at 75 J/cm2 (light dose 50-100 J/cm2), porfimer sodium 150 μg/mL. The method, then:
as §1, §2, §3, §4, §5

The subject of data set [2] is M. catarrhalis (−). The data set is described as follows: porfimer sodium aPDT, 48 hour biofilm culture. The format is cell-based, Moraxella catarrhalis. As to conditions: 630 nm, kill at 75 J/cm2 (light dose 75-100 J/cm2), porfimer sodium 250 μg/mL. As to the method: as §1, §6, §4, §5
Data set [3] deals with P. acnes (+). The data set is described as follows: porfimer sodium aPDT, 48 hour biofilm culture. The class given is cell-based, Proprionibacterium acnes (Cutibacterium acnes). The note with it: 630 nm, kill at 100 J/cm2 (light dose 75-100 J/cm2), porfimer sodium 250 μg/mL. The method, then:
as §1, §6, §4, §5

The subject of another data set is S. pneumo (+). The data set is described as follows: porfimer sodium aPDT, planktonic culture. The class given is cell-based, Streptococcus pneumoniae. As to conditions: 630 nm, 100 J/cm2, porfimer sodium 125 μg/mL. As to the method:
as §1, §2, §3, §4, §5

Data set [4] relates to planktonic and biofilm bacterial populations. Put plainly: porfimer sodium photodynamic therapy in vitro, overall summary. The class given is cell-based. As to the method: This study evaluated the bactericidal efficacy of porfimer sodium based photodynamic therapy against standard and antibiotic resistant bacterial strains in planktonic and biofilm cultures. The primary efficacy endpoint was the overall cell kill analysis as determined by the enumeration of viable colony forming assays post PDT treatments as analyzed using the unpaired students two-tailed t test on log transformed data.
Planktonic cultures were prepared by adding bacteria to glass vials with saline and porfimer sodium to a final concentration ranging from 125 μg/ml to 150 μg/ml.
Biofilms were formed on glass coupons in culture dishes containing a bacterial inoculum for 48 hours under conditions specific to the strain. The glass coupon attached biofilms were then rinsed with saline, by dipping method, prior to the administration of the porfimer sodium. The biofilms were incubated in the dark for 15-30 minutes with a reconstituted saline solution of porfimer sodium at final concentrations ranging from 75 μg/ml-250 μg/ml. The porfimer sodium treated biofilms were then exposed to light doses at 630 nm light of 50-200 J/cm^2 at a power density of 150 milliwatts per cm^2. […] Power output of the laser was measured using a UDT/Gamma Scientific 371 optical power meter and an integrating sphere. […]

The test system of data set [5] is M. catarrhalis (−). Put plainly: porfimer sodium aPDT, planktonic culture. The format is cell-based, Moraxella catarrhalis. The method, then: as §1, §2, §3, §4, §5
Data set [6] has as its system P. acnes (+). The data set is described as follows: porfimer sodium aPDT, planktonic culture. The format is cell-based, Proprionibacterium acnes (Cutibacterium acnes). As to conditions: 630 nm, kill at 75 J/cm2 (light dose 50-100 J/cm2), porfimer sodium 150 μg/mL. As to the method: as §1, §2, §3, §4, §5
Another data set has as its system F. nucleatum (−). The data set is described as follows: porfimer sodium aPDT, 48 hour biofilm culture. The note with it: 630 nm, kill at 100 J/cm2 (light dose 75-100 J/cm2), porfimer sodium 250 μg/mL. The format is cell-based, Fusobacterium nucleatum. As to the method:
as §1, §6, §4, §5

In a further data set the test system is A. baumannii (−). Put plainly: porfimer sodium aPDT, planktonic culture. The format is cell-based, Acinetobacter baumannii. As to conditions: 630 nm, 200 J/cm2, porfimer sodium 125 μg/mL. As to the method: as §1, §2, §3, §4, §5
The next data set concerns P. anaerobius (+). Put plainly: porfimer sodium aPDT, planktonic culture. The note with it: 630 nm, kill at 75 J/cm2 (light dose 50-100 J/cm2), porfimer sodium 150 μg/mL. The format is cell-based, Peptostreptococcus anaerobius. The method, then: as §1, §2, §3, §4, §5
For data set [7] the following is noted: conventional reconstituted porfimer sodium, comparison statement; cited from earlier work.

Where only a bound is given, the exact number is not on record here.

On to porfimer sodium, for which the Rate of kill in the data set on Y. intermedia (−) was 7Log; with S. aureus (+), >6Log; in the data set with Prevotella (−), 7Log; in the data set on M. catarrhalis (−) [2] it was >6Log; with P. acnes (+) [3] it was 7Log; in the data set on S. pneumo (+), >4Log. Also, the Rate of kill with M. catarrhalis (−) [5] (630 nm, 200 J/cm2, porfimer sodium 125 μg/mL) is reported as 7Log; in the data set on P. acnes (+) [6], 7Log; in the data set on F. nucleatum (−) it was 3Log; in the data set with A. baumannii (−), 1Log; in the data set with P. anaerobius (+), 5Log. Also, the “decrease of viability of the bacteria in biofilm” value in [1] (depending on the dose) is 2-7 logs. Also, the “log reduction at the highest light doses (complete reduction, all strains examined)” value in data set [1] (highest light doses used) is ~7 log reduction. Also, in [4], the “log reductions in bacterial loads” value is recorded as 5-6 log. In addition, the “reduction in bacterial loads” value in data set [4] was > 99%. The bacterial cell kill with M. catarrhalis (−) [5] (125 μg/ml, incubated 10 minutes, light doses 50-100 J/cm^2) is listed as 6-7 logs. For the same substance, the “time stable when reconstituted with saline” value in data set [7] is 24 h.
